Like-named read-outs stand apart in the source and are kept apart here.
Legend:
Type in all cases: cell-based, human
[1] = system: Hs 729; assay: OncoPanel cell proliferation assay, Hs 729; conditions: for Relative cell count (%) Mean: Hs 729
Description: (§1) Cells were grown in RPMI 1640, 10% FBS, 2 mM L-alanyl-L-glutamine, 1 mM Na pyruvate, or a special medium. Cells were seeded into 384-well plates and incubated in a humidified atmosphere of 5% CO2 at 37° C. Compounds were added the day following cell seeding. At the same time, a time zero untreated cell plate was generated. After a 3-day incubation period, cells were fixed and stained to allow fluorescence imaging of nuclei. Compounds (1 mM stock solutions) were serially diluted in half-log steps from the highest test concentration ([…]), and assayed over 10 concentrations with a maximum assay concentration of 0.1% DMSO. Automated fluorescence microscopy was carried out using a Molecular Devices ImageXpress Micro XL high-content imager, and images were collected with a 4× objective. 16-bit TIFF images were acquired and analyzed with MetaXpress 5.1.0.41 software.
(§2) Cell proliferation was measured by the fluorescence intensity of an incorporated nuclear dye. The output is referred to as the relative cell count, where the measured nuclear intensity is transformed to percent of control (POC) using the following formula: […]
(§3) Cellular response parameters were calculated using nonlinear regression to a sigmoidal single-site dose response model:
(§4) Where y is a response measured at concentration x, A and B are the lower and upper limits of the response, C is the concentration at the response midpoint (EC50), and D is the Hill Slope (Ref. 1).
(§5) EC50 is the test compound concentration at the curve inflection point or half the effective response (parameter C of the fitted curve solution). GI50 is the concentration needed to reduce the observed growth by half (midway between the curve maximum and the time zero value). “Cell Count Activity Area” is an estimate of the integrated area above the curve (Barretina, et al. The Cancer Cell Line Encyclopedia enables predictive modelling of anticancer drug sensitivity. Nature 483: 603-607). […] In rare instances, values <0 or >10 may be observed. […] Curve-fitting, calculations, and report generation was performed using a custom data reduction engine and MathIQ based software (AIM).

[2] = system: CRO-AP2; assay: OncoPanel cell proliferation assay, CRO-AP2; conditions: for Relative cell count (%) Mean: CRO-AP2
Description: as §1, §2, §3, §4, §5

[3] = system: MES-SA; assay: OncoPanel cell proliferation assay, MES-SA
Description: as §1, §2, §3, §4, §5

[4] = system: RL95-2; assay: OncoPanel cell proliferation assay, RL95-2; conditions: for Relative cell count (%) Mean: RL95-2
Description: as §1, §2, §3, §4, §5

[5] = system: SCaBER; assay: OncoPanel cell proliferation assay, SCaBER
Description: as §1, §2, §3, §4, §5

[6] = system: SNU-C2B; assay: OncoPanel cell proliferation assay, SNU-C2B
Description: as §1, §2, §3, §4, §5

[7] = system: SNU-5; assay: OncoPanel cell proliferation assay, SNU-5; conditions: Homo sapiens, 72 h; SNU-5, 3-day incubation; read-out: Cell Count EC50
Description: as §1, with “Cells” for “Cells were grown in RPMI 1640, 10% FBS, 2 mM L-alanyl-L-glutamine, 1 mM Na pyruvate, or a special medium. Cells”
as §2, §3, §4
GI50 is the concentration needed to reduce the observed growth by half (midway between the curve maximum and the time zero value). […] In rare instances, values <0 or >10 may be observed. […] Curve-fitting, calculations, and report generation was performed using a custom data reduction engine and MathIQ based software (AIM).

[8] = Homo sapiens, 72 h, 3-day incubation, read-out: Cell Count EC50
[9] = Homo sapiens, 72 h, 3-day incubation, read-out: Cell Count GI50
[10] = Homo sapiens, 72 h, 3-day incubation, read-out: Cell Count IC50

Compound: CO[C@H]1C[C@@H]2CC[C@@H](C)[C@@](O)(O2)C(=O)C(=O)N2CCCC[C@H]2C(=O)O[C@H]([C@H](C)C[C@@H]2C[C@@H]3C[C@H]2C[C@H]3O)CC(=O)[C@H](C)/C=C(\C)[C@@H](O)[C@@H](OC)C(=O)[C@H](C)C[C@H](C)/C=C/C=C/C=C/1C [Formula I, 37R-hydroxynorbornylrapamycin]
- EC50 ([1]; Homo sapiens, 72 h, Hs 729, 3-day incubation, read-out: Cell Count EC50): 14.1 nM
- GI50 ([1]; Homo sapiens, 72 h, Hs 729, 3-day incubation, read-out: Cell Count GI50): 17.3 nM
- IC50 ([1]; Homo sapiens, 72 h, Hs 729, 3-day incubation, read-out: Cell Count IC50): > 1000 nM
- Cell Count Activity Area ([1]; Hs 729, scale 0-10): 1.80
- Relative cell count (%) Mean ([1]; 1.00E+00 microM): 65.5%
- Relative cell count (%) Mean ([1]; 1.00E−01 microM): 69.6%
- Relative cell count (%) Mean ([1]; 1.00E−02 microM): 79.6%
- Relative cell count (%) Mean ([1]; 1.00E−03 microM): 87.3%
- Relative cell count (%) Mean ([1]; 1.01E−04 microM): 95.7%
- Relative cell count (%) Mean ([1]; 3.16E−01 microM): 63.1%
- Relative cell count (%) Mean ([1]; 3.17E−02 microM): 76.9%
- Relative cell count (%) Mean ([1]; 3.17E−03 microM): 79.1%
- Relative cell count (%) Mean ([1]; 3.18E−04 microM): 87.7%
- Relative cell count (%) Mean ([1]; 3.18E−05 microM): 91.5%
- Cell Count Activity Area ([2]; CRO-AP2, scale 0-10): 5.61
- Relative cell count (%) Mean ([2]; 1.00E+00 microM): 23.3%
- Relative cell count (%) Mean ([2]; 1.00E−01 microM): 24.5%
- Relative cell count (%) Mean ([2]; 1.00E−02 microM): 27.9%
- Relative cell count (%) Mean ([2]; 1.00E−03 microM): 38.7%
- Relative cell count (%) Mean ([2]; 1.01E−04 microM): 89.0%
- Relative cell count (%) Mean ([2]; 3.16E−01 microM): 23.3%
- Relative cell count (%) Mean ([2]; 3.17E−02 microM): 23.6%
- Relative cell count (%) Mean ([2]; 3.17E−03 microM): 29.7%
- Relative cell count (%) Mean ([2]; 3.18E−04 microM): 59.0%
- Relative cell count (%) Mean ([2]; 3.18E−05 microM): 93.4%
- EC50 ([2]; Homo sapiens, 72 h, CRO-AP2, 3-day incubation, read-out: Cell Count EC50): 0.319 nM
- GI50 ([2]; Homo sapiens, 72 h, CRO-AP2, 3-day incubation, read-out: Cell Count GI50): 0.434 nM
- IC50 ([2]; Homo sapiens, 72 h, CRO-AP2, 3-day incubation, read-out: Cell Count IC50): 0.536 nM
- Relative cell count (%) Mean ([3]; 1.00E+00 microM): 27.9%
- Relative cell count (%) Mean ([3]; 1.00E−01 microM): 28.9%
- Relative cell count (%) Mean ([3]; 1.00E−02 microM): 32.0%
- Relative cell count (%) Mean ([3]; 1.00E−03 microM): 45.0%
- Relative cell count (%) Mean ([3]; 1.01E−04 microM): 93.8%
- Relative cell count (%) Mean ([3]; 3.16E−01 microM): 26.8%
- Relative cell count (%) Mean ([3]; 3.17E−02 microM): 28.6%
- Relative cell count (%) Mean ([3]; 3.17E−03 microM): 37.3%
- Relative cell count (%) Mean ([3]; 3.18E−04 microM): 64.3%
- Relative cell count (%) Mean ([3]; 3.18E−05 microM): 98.1%
- EC50 [3, 8]: 0.322 nM
- GI50 [3, 9]: 0.495 nM
- IC50 [3, 10]: 0.644 nM
- Cell Count Activity Area ([3]; scale 0-10): 5.42
- EC50 ([4]; Homo sapiens, 72 h, RL95-2, 3-day incubation, read-out: Cell Count EC50): 0.15 nM
- GI50 ([4]; Homo sapiens, 72 h, RL95-2, 3-day incubation, read-out: Cell Count GI50): 0.22 nM
- IC50 ([4]; Homo sapiens, 72 h, RL95-2, 3-day incubation, read-out: Cell Count IC50): 10.9 nM
- Cell Count Activity Area ([4]; RL95-2, scale 0-10): 4.12
- Relative cell count (%) Mean ([4]; 1.00E+00 microM): 47.2%
- Relative cell count (%) Mean ([4]; 1.00E−01 microM): 50.6%
- Relative cell count (%) Mean ([4]; 1.00E−02 microM): 52.2%
- Relative cell count (%) Mean ([4]; 1.00E−03 microM): 59.5%
- Relative cell count (%) Mean ([4]; 1.01E−04 microM): 78.3%
- Relative cell count (%) Mean ([4]; 3.16E−01 microM): 45.6%
- Relative cell count (%) Mean ([4]; 3.17E−02 microM): 48.5%
- Relative cell count (%) Mean ([4]; 3.17E−03 microM): 52.9%
- Relative cell count (%) Mean ([4]; 3.18E−04 microM): 64.0%
- Relative cell count (%) Mean ([4]; 3.18E−05 microM): 89.3%
- Relative cell count (%) Mean ([5]; 1.00E+00 microM): 32.4%
- Relative cell count (%) Mean ([5]; 1.00E−01 microM): 36.9%
- Relative cell count (%) Mean ([5]; 1.00E−02 microM): 35.4%
- Relative cell count (%) Mean ([5]; 1.00E−03 microM): 44.7%
- Relative cell count (%) Mean ([5]; 1.01E−04 microM): 61.7%
- Relative cell count (%) Mean ([5]; 3.16E−01 microM): 33.0%
- Relative cell count (%) Mean ([5]; 3.17E−02 microM): 34.0%
- Relative cell count (%) Mean ([5]; 3.17E−03 microM): 38.7%
- Relative cell count (%) Mean ([5]; 3.18E−04 microM): 55.4%
- Relative cell count (%) Mean ([5]; 3.18E−05 microM): 81.9%
- EC50 [5, 8]: 0.0947 nM
- GI50 [5, 9]: 0.262 nM
- IC50 [5, 10]: 0.451 nM
- EC50 ([5]; Homo sapiens, Table 4 summary, Bladder, read-out: EC50): 0.095 nM
- Cell Count Activity Area ([5]; scale 0-10): 5.46
- Relative cell count (%) Mean ([6]; 1.00E+00 microM): 58.7%
- Relative cell count (%) Mean ([6]; 1.00E−01 microM): 65.6%
- Relative cell count (%) Mean ([6]; 1.00E−02 microM): 68.6%
- Relative cell count (%) Mean ([6]; 1.00E−03 microM): 73.7%
- Relative cell count (%) Mean ([6]; 1.01E−04 microM): 89.1%
- Relative cell count (%) Mean ([6]; 3.16E−01 microM): 55.1%
- Relative cell count (%) Mean ([6]; 3.17E−02 microM): 63.2%
- Relative cell count (%) Mean ([6]; 3.17E−03 microM): 71.6%
- Relative cell count (%) Mean ([6]; 3.18E−04 microM): 79.6%
- Relative cell count (%) Mean ([6]; 3.18E−05 microM): 83.2%
- EC50 [6, 8]: 2.07 nM
- GI50 [6, 9]: 24.1 nM
- IC50 [6, 10]: > 1000 nM
- Cell Count Activity Area ([6]; scale 0-10): 2.30
- EC50 [7]: 2.05 nM

— patent US20210024542A1 (Torcept Therapeutics, Inc., priority 2018, published 2021)
